From patent publication US20130202594A1, “ALK1 Antagonists and Their Uses in Treating Renal Cell Carcinoma” (priority 2012, published 2013)
“Also recorded” adds a separate entry of the source.

What was measured:
[1] = system: SMAD 1/5/8 phosphorylation in HUVEC cells; assay: rhBMP-9 induced SMAD 1/5/8 phosphorylation in HUVEC cells; type: cell-based, human; settings: 250 ng/ml, rhBMP-9 50 ng/ml
Protocol: Activation of SMAD phosphorylation is commonly used to assay activation of upstream activin receptors. ALK1 is known to modulate phosphorylation of SMAD proteins 1,5 and 8 upon activation by its ligand. Here, we added rhBMP-9 (50 ng/ml) to initiate SMAD phosphorylation in HUVEC cells, a human endothelial cell line which innately expresses ALK1 receptor, over a timecourse of 30 minutes. Phosphorylation of SMAD 1/5/8 was seen 5 minutes after treatment of cells with ligand and phosphorylation was maintained for the entirety of the 30 minute period.

[2] = system: angiogenesis in chick chorioallantoic membrane; assay: CAM (chick chorioallantoic membrane) angiogenesis assay; type: in vivo
From the text: In preferred embodiments, an ALK1 ECD polypeptide binds to one or more of GDF5, GDF6, GDF7, BMP9 and BMP10. […] Binding may be assessed using purified proteins in solution or in a surface plasmon resonance system, such as a Biacore™ system. […] Bioassays for angiogenesis inhibitory activity include the chick chorioallantoic membrane (CAM) assay, the mouse corneal micropocket assay, or an assay known in the art for measuring the effect of administering isolated or synthesized proteins on implanted tumors. The CAM assay is described by O'Reilly, et al., in “Angiogenic Regulation of Metastatic Growth” Cell, 1994; 79 (2):315-328. Briefly, 3 day old chicken embryos with intact yolks are separated from the egg and placed in a petri dish. After 3 days of incubation, a methylcellulose disc containing the protein to be tested is applied to the CAM of individual embryos. After 48 hours of incubation, the embryos and CAMs are observed to determine whether endothelial growth has been inhibited. The mouse corneal micropocket assay involves implanting a growth factor-containing pellet, along with another pellet containing the suspected endothelial growth inhibitor, in the cornea of a mouse and observing the pattern of capillaries that are elaborated in the cornea. Other assays are described in the Examples.
VEGF and FGF are well-known to stimulate angiogenesis. A CAM (chick chorioallantoic membrane) assay system was used to assess the angiogenic effects of GDF7.
ALK1-Fc fusions were tested for anti-angiogenic activity in the CAM assay.
ALK1-Fc proteins and a commercially available, anti-angiogenic anti-VEGF monoclonal antibody were compared in the CAM assay. The ALK1-Fc proteins had similar potency as compared to anti-VEGF. The anti-VEGF antibody bevacizumab is currently used in the treatment of cancer and macular degeneration in humans.

endothelial cells = assay: Endothelial cell tube forming assay on Matrigel with ECGS; type: cell-based; settings: for tube formation compared with endostatin: endostatin 100 ng/ml
From the text: In order to evaluate the angiogenic effect of ALK1-Fc in an in vitro system, we assayed the effectiveness of the compound in reducing tube formation of endothelial cells on a Matrigel substrate. This technique is commonly used to assess neovascularization, giving both rapid and highly reproducible results. Endothelial Cell Growth Supplement (ECGS) is used to induce the formation of microvessels from endothelial cells on Matrigel, and the efficacy of anti-angiogenic compounds are then gauged as a reduction of cord formation in the presence of both the drug and ECGS over an 18 hour timecourse. As expected, addition of ECGS (200 ng/ml) induced significant cord formation, as compared to the negative control (no treatment added), which indicates basal levels of endothelial cell cord formation produced on Matrigel substrate (FIG. 5).

[3] = Size exclusion chromatography of ALK1-Fc preparations (dimers vs aggregates); type: physicochemical
Protocol: The R&D Systems material contains approximately 13% aggregated protein, as shown by the peaks on the left hand side of the graph, as well as some lower molecular weight species. The material of SEQ ID NO:3 is greater than 99% composed of dimers of the appropriate molecular size.
In one approach, a number of different cell culture media were tested. […] The resulting material is comprised of greater than 99% dimers. […] Having identified aggregate formation as a significant problem in ALK1-Fc production, it is expected that other approaches may be developed, including approaches that involve additional purification steps (although such approaches may result in lower yield of purified protein).

GDF7 = target: T1, GDF7 (Homo sapiens, UniProt Q7Z4P5); assay: Biacore binding to hALK1-Fc: GDF7
T1 sequence (Q7Z4P5 322-450): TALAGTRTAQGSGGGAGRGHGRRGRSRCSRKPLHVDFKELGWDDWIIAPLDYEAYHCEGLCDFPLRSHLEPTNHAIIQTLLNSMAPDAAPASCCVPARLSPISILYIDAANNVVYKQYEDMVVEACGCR
Protocol: (§1) ALK1 is a type 1 receptor for ligands of the TGFβ family. Multiple members of the TGFβ family were tested for binding to a human ALK1-Fc fusion protein, using a Biacore™ system.

[4] = system: BMP-9 mediated Smad1/5/8 signaling in HMVEC cells; assay: SBE4-luc luciferase reporter of BMP-9 mediated Smad1/5/8 signaling in HMVEC cells; type: cell-based, human; settings: 10 μg/ml, rhBMP-9 50 ng/ml
Protocol: Using a luciferase reporter construct under the control of four sequential consensus SBE sites (SBE4-luc), which are responsive to Smad1/5/8-mediated signaling, we measured BMP-9 mediated activity in the presence and absence of hALK1-Fc drug or neutralizing ALK1 specific monoclonal antibody in HMVEC cells. HMVEC cells were stimulated with rhBMP-9 (50 ng/ml), which induced Smad1/5/8-mediated transcriptional activation, evidenced here by the increase in SBE4-luc modulated transcriptional upregulation.

[5] = system: BMP10 signaling (Smad1/5/8 reporter) in T98G cells; assay: BMP10 signaling reporter assay in T98G cells transfected with ALK1; type: cell-based, human; settings: 65 ng/ml, BMP10 1 ng/ml
Protocol: Effects of hALK-Fc on BMP10 signaling were determined in a cell-based assay, in which human glioblastoma T98G cells were transfected with three plasmids: 1) an expression construct encoding full-length ALK1; 2) a firefly-luciferase reporter construct (see Example 3) responsive to Smad1/5/8-mediated signaling, and 3) a Renilla-luciferase control construct. Treatment of transfected cells with recombinant human BMP10 (1 ng/ml) strongly stimulated firefly luciferase activity relative to Renilla luciferase activity (FIG. 16). Omission of the ALK1 expression construct reduced BMP10-stimulated activity by approximately two-thirds (data not shown), thus implicating ALK1 as a major mediator of the BMP10 signal. Treatment of fully transfected cells with hALK1-Fc (65 ng/ml) and BMP10 (1 ng/ml) reduced the transcriptional response compared to BMP10 alone by more than 80% (FIG. 16).

BMP4 = target: T2, BMP4 (Homo sapiens, UniProt P12644); assay: Biacore binding to hALK1-Fc: BMP4
T2 sequence (P12644 293-408): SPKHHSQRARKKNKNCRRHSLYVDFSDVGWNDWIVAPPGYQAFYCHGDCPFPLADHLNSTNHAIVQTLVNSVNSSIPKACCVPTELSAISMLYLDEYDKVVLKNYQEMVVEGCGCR
Protocol: as §1

## hALK1-Fc: extracellular domain of human ALK1 (amino acids 22-120) fused to a human IgG1 Fc with a minimal linker (SEQ ID NO:3/14)
[1]
  SMAD 1/5/8 phosphorylation: SMAD 1/5/8 phosphorylation was reduced
[2]
  anti-angiogenic effect compared with anti-VEGF monoclonal antibody: comparable to the effects of the anti-VEGF antibody
  anti-angiogenic effect on angiogenesis stimulated by VEGF, FGF and GDF7: inhibits angiogenesis stimulated by VEGF, FGF and GDF7
Endothelial cells; 100 ng/ml, ECGS 200 ng/ml, 18 hour
  cord formation: cord formation was visibly reduced
Endothelial cells; ECGS
  tube formation compared with endostatin: more potent anti-angiogenic activity than the negative control endostatin
Endothelial cells; ECGS, listed as ACE
  tube formation compared with endostatin: to a greater degree than the positive control, Endostatin
Endothelial cells; every concentration, ECGS
  neovascularization (quantification of vessel length): reduced neovascularization to basal levels
[3]
  dimers: greater than 99%
GDF7
  Kd: ~50 nM
[4]
  diminished transcriptional response (SBE4-luc): ~60%
[5]
  reduction of transcriptional response compared to BMP10 alone: more than 80%
BMP4
  binding to hALK1-Fc: failed to show substantial binding; also recorded: only limited binding
